Results on two compounds are retold here after PMC11643494, “Structure–Activity Relationship Studies in a Series of 2-Aryloxy-N-(pyrimidin-5-yl)acetamide Inhibitors of SLACK Potassium Channels” (Molecules, 2024).

For the assay, the target named is T1, Maxi-K α1/β4 (Homo sapiens, UniProt Q12791).
T1 construct: expressed in transfected cells; host or cells: HEK293
Description: Tl+-flux assay in HEK-293 cells, Maxi-K α1/β4. Format: cell-based. Conditions: HEK293; 10 µM test compound; relative to control paxilline; read-out: Percent Inhibition ± SEM, Maxi-K α1/β4. The source says:
Having executed our plan to prepare analogs across the identified regions of the chemotype (Figure 2), we identified two analogs for further profiling and evaluation. […] Desiring to add a second compound with some measure of structural differences, we also chose another submicromolar SLACK inhibitor 66 (VU0936154). Whereas 40 contains an ether linker and a halogenated phenyl group in the eastern region, […] contains an N-methyl linker and a phenyl group with a more polar cyano substituent. We first screened these analogs at 10 µM versus our in-house panel of ion channel targets using Tl^+-flux assays in HEK-293 cells expressing the human target of interest. […] Included in this set are Slo family members SLICK and two isoforms of Maxi-K, as well as several different K^+, Na^+, and Ca^2+ channels (Table 6). […] Of note was the excellent selectivity versus the broader panel of targets for both compounds, including versus the hERG channel.
Stably transfected monoclonal HEK293 cell lines expressing SLICK, Maxi-K α1/β3, Maxi-K α1/β4, CaV3.2, GIRK 1/2, KV2.1, KV7.2, NaV1.7, and TASK-1 were generated as previously described. […]
The Tl^+ flux assays were conducted as previously described, with modifications optimized for individual cell lines as described below. […] Cell plates were then loaded onto a Panoptic kinetic imaging plate reader (WaveFront Biosciences, Franklin, TN, USA). […]

T1 sequence (Q12791 whole entry): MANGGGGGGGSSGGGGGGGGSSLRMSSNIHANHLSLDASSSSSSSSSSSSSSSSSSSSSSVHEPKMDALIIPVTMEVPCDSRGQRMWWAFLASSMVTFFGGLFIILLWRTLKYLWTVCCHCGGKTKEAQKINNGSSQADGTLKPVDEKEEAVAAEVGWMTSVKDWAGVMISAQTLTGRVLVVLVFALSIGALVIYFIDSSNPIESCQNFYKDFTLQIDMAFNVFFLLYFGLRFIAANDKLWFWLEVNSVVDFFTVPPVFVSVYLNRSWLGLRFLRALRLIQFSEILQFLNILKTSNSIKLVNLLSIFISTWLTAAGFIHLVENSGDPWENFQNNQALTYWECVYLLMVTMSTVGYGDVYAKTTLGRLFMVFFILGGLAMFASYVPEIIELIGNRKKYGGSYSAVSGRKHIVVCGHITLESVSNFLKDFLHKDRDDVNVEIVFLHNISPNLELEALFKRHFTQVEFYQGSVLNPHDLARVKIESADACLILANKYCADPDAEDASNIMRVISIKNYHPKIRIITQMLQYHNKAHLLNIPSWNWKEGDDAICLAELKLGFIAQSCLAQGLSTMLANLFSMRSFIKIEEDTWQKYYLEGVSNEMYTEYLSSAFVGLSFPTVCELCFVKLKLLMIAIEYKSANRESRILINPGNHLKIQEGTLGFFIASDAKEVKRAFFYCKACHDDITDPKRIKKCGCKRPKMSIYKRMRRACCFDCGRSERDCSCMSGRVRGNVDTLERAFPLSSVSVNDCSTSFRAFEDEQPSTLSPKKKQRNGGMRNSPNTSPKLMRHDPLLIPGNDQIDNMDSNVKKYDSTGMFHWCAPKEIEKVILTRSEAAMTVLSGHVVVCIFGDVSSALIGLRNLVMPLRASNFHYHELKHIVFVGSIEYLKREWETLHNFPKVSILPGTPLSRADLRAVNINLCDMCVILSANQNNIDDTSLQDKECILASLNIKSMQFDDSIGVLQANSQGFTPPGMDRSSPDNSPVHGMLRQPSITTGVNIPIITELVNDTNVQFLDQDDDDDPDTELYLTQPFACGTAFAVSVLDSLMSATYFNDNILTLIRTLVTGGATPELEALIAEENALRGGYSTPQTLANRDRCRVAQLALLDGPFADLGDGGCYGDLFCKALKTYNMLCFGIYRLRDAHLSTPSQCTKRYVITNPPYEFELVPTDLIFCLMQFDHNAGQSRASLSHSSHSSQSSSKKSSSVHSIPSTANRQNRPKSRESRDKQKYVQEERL
T1 sequence (Q86W47 whole entry partner): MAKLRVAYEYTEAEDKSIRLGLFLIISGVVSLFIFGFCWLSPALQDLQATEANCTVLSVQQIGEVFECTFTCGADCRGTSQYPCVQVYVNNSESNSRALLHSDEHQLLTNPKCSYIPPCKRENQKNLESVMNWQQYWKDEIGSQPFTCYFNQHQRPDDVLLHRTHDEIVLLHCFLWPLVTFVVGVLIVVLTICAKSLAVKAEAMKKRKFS

As to `CC(C)(Oc1ccc(Cl)cc1)C(=O)Nc1cnc(Oc2c(F)cccc2F)nc1` [Analog 40], the inhibition at 10 µM is 10 ± 7.4%.

As for `CN(c1ccc(C#N)cc1)c1ncc(NC(=O)C(C)(C)Oc2ccc(Cl)cc2)cn1` [Analog 66], the inhibition at 10 µM stood at 22 ± 2.5%.
